Reference: US20250151727A1, “(S)-ABSCISIC ACID FOR REDUCING FRUIT DROP” (Valent BioSciences LLC, priority 2023, published 2025)

What was measured:
Type in all cases: in vivo
[1] = tested on: 'Midknight Valencia' sweet orange trees; experiment: Fruit drop after foliar spray, 'Midknight Valencia' sweet orange, Porterville (Example 1); details: for # Fruit per Tree / % Change in # Fruit per Tree: ProTone SG, 28 days after 100% petal drop; for % Change in # Fruit per Tree: vs untreated control
Method: ProTone™ SG was applied to mature ‘Midknight Valencia’ sweet orange trees in a commercial orchard near Porterville (33°08′37.54″S, 18°59′35.90″E) in the Western Cape Province of South Africa. The experiment consisted of a completely randomized design and consisted of 10 single-tree replicates. S-ABA was applied as a foliar spray at 75, 150 and 300 parts per million (“ppm”) and compared to an untreated control (only water) at 2 liters per tree. All treatments were applied with a non-ionic wetting agent (Villa 51® having the active ingredient isotridecanol and available from Villa Crop Protection (Pty) Ltd) at a rate of 6 milliliters per 100 liters of water. Treatments were applied 28 days after 100% petal drop on 31 Oct. 2019. See Results in Table 1, below.

'Orri' mandarin trees [2] = experiment: Fruit drop after foliar spray, 'Orri' mandarin, Piketberg, open and shade-netted orchards (Example 2); details: 150 ppm; for # Fruit per Tree / % Change in # Fruit per Tree: ProTone SG, 28 days after 100% petal drop
Method: ProTone™ SG was applied to mature ‘Orri’ mandarin trees in a commercial orchard near Piketberg (33°04′46.3″S 18°50′04.7″E) in the Western Cape Province of South Africa. Two trials were conducted, one in an orchard covered with permanent shade netting, and the other in an open orchard. The experiment consisted of 5 trees per plot for each of covered and open orchard. S-ABA was applied as a foliar spray at 150 ppm and compared to an untreated control at 3.4 liters per tree for the covered orchard and 2.8 liters per tree for the open orchard. All treatments were applied with Villa 51® at a rate of 6 milliliters per 100 liters of water. Treatments were applied 28 days after 100% petal drop on 29 Nov. 2021. See Results in Table 2, below.

[3] = tested on: 'Nadorcott' mandarin trees; experiment: Fruit drop after foliar spray, 'Nadorcott' mandarin, Piketberg (Example 3); details: for # Fruit per Tree / % Change in # Fruit per Tree: 28 days after 100% petal drop; for % Change in # Fruit per Tree: vs untreated control
Method: ProTone™ SG or Excelero™ SL was applied to mature ‘Nadorcott’ mandarin trees in a commercial orchard near Piketberg (33°04′46.3″S 18°50′04.7″E) in the Western Cape Province of South Africa. The experiment consisted of 5 trees per plot. S-ABA in the form of ProTone™ SG was applied as a foliar spray at 18.5, 37 and 75 ppm and at 37 ppm in the form of Excelero™ SL and compared to an untreated control at 2.4 liters per tree. All treatments were applied with Villa 51® at a rate of 6 milliliters per 100 liters of water. Treatments were applied 28 days after 100% petal drop on 8 Nov. 2022. See Results in Table 3, below.

[4] = tested on: 'Nadorcott' mandarin trees; experiment: Fruit drop, 'Nadorcott' mandarin, Piketberg, all plots with ProGibb (Example 4); details: for # Fruit per Tree / % Change in # Fruit per Tree: Excelero SL; for % Change in # Fruit per Tree: vs untreated control
Method: Excelero™ SL was applied to mature ‘Nadorcott’ mandarin trees in a commercial orchard near Piketberg (33°04′46.3″S 18°50′04.7″E) in the Western Cape Province of South Africa. The experiment consisted of 5 trees per plot. S-ABA was applied at 50 and 100 ppm in the form of Excelero™ SL and compared to an untreated control at 2.4 liters per tree. All plots received application of ProGibb® at 80% and 100% petal fall. All treatments were applied with Villa 51® at a rate of 6 milliliters per 100 liters of water. Treatments were applied 42 and 56 days after 100% petal drop (“DAP”) on 23 November and […], respectively. See Results in Table 4, below.

'Leanri' mandarin trees = experiment: Fruit drop, 'Leanri' mandarin, Ashton, all plots with Falgro and girdling (Example 5); details: for # Fruit per Tree / % Change in # Fruit per Tree: 37 ppm, 21 days after 100% petal drop; for % Change in # Fruit per Tree: vs untreated control
Method: Excelero™ SL was applied to mature ‘Leanri’ mandarin trees in a commercial orchard near Ashton (33°50′57″S, 20°02′15″E) in the Western Cape Province of South Africa. The experiment consisted of 5 trees per plot. S-ABA was applied at 37 ppm in the form of ProTone™ SG and Excelero™ SL and compared to an untreated control at 2.4 liters per tree. All plots received application of Falgro® at 70% and 90% petal fall and a girdling action. All treatments were applied with Villa 51® at a rate of 6 milliliters per 100 liters of water. Treatments were applied 21 days after 100% petal drop on 8 Nov. 2023. See Results in Table 5, below.

'Orri' mandarin trees [5] = experiment: Fruit drop, 'Orri' mandarin, Mpumalanga (Example 6); details: for # Fruit per Tree / % Change in # Fruit per Tree: Excelero SL; for % Change in # Fruit per Tree: vs untreated control
Description: Excelero™ SL was applied to mature ‘Orri’ mandarin trees in a commercial orchard near Mpumalanga, South Africa. The experiment consisted of a completely randomized design. S-ABA was applied at 20, 40 and 80 ppm in the form of Excelero™ SL and compared to an untreated control. All treatments were applied with Villa 51® at a rate of 6 milliliters per 100 liters of water. Treatments were applied 14, 21 and 28 days after 100% petal drop (“DAP”). See Results in Table 6, below.

Substance: (S)-abscisic acid [S-ABA]
- effect on fruit drop as compared to untreated control ([1]; 75 and 150 ppm): reduced fruit drop
- # Fruit per Tree ([1]; 75 ppm foliar spray): 413
- % Change in # Fruit per Tree ([1]; 75 ppm foliar spray): 11%
- # Fruit per Tree ([1]; 150 ppm foliar spray): 444
- % Change in # Fruit per Tree ([1]; 150 ppm foliar spray): 20%
- effect on fruit drop as compared to untreated control ([1]; 300 ppm): increasing fruit drop
- # Fruit per Tree ([1]; 300 ppm foliar spray): 351
- % Change in # Fruit per Tree ([1]; 300 ppm foliar spray): −5%
- effect on fruit drop as compared to untreated control ('Orri' mandarin trees [2]): increased fruit drop
- # Fruit per Tree ('Orri' mandarin trees [2]; no shade (open orchard)): 397
- % Change in # Fruit per Tree ('Orri' mandarin trees [2]; no shade (open orchard), vs untreated control (no shade)): −28%
- # Fruit per Tree ('Orri' mandarin trees [2]; shade (permanent shade netting)): 82
- % Change in # Fruit per Tree ('Orri' mandarin trees [2]; shade (permanent shade netting), vs untreated control (shade)): −78%
- # Fruit per Tree ([3]; 18.5 ppm, ProTone SG): 793
- % Change in # Fruit per Tree ([3]; 18.5 ppm, ProTone SG): 3%
- effect on fruit drop as compared to untreated control ([3]; 37 and 75 ppm): reduced fruit drop
- # Fruit per Tree ([3]; 37 ppm, Excelero SL): 1010
- % Change in # Fruit per Tree ([3]; 37 ppm, Excelero SL): 32%
- # Fruit per Tree ([3]; 37 ppm, ProTone SG): 841
- % Change in # Fruit per Tree ([3]; 37 ppm, ProTone SG): 10%
- # Fruit per Tree ([3]; 75 ppm, ProTone SG): 909
- % Change in # Fruit per Tree ([3]; 75 ppm, ProTone SG): 18%
- effect on fruit drop as compared to untreated control ([4]; 50 and 100 ppm at both 42 and 56 days after 100% petal drop): reduced fruit drop
- # Fruit per Tree ([4]; 50 ppm @ 42 DAP): 412
- % Change in # Fruit per Tree ([4]; 50 ppm @ 42 DAP): 35%
- # Fruit per Tree ([4]; 50 ppm @ 56 DAP): 316
- % Change in # Fruit per Tree ([4]; 50 ppm @ 56 DAP): 3%
- # Fruit per Tree ([4]; 100 ppm @ 42 DAP): 387
- % Change in # Fruit per Tree ([4]; 100 ppm @ 42 DAP): 26%
- # Fruit per Tree ([4]; 100 ppm @ 56 DAP): 322
- % Change in # Fruit per Tree ([4]; 100 ppm @ 56 DAP): 5%
- effect on fruit drop as compared to untreated control ('Leanri' mandarin trees; 37 ppm at 21 days after 100% petal drop): reduced fruit drop
- # Fruit per Tree ('Leanri' mandarin trees; Excelero SL): 430
- % Change in # Fruit per Tree ('Leanri' mandarin trees; Excelero SL): 28%
- # Fruit per Tree ('Leanri' mandarin trees; ProTone SG): 398
- % Change in # Fruit per Tree ('Leanri' mandarin trees; ProTone SG): 19%
- effect on fruit drop as compared to untreated control ('Orri' mandarin trees [5]; 20, 40 and 80 ppm at each of 14, 21 and 28 days after 100% petal drop): reduced fruit drop
- # Fruit per Tree ('Orri' mandarin trees [5]; 20 ppm @ 14 DAP): 222
- % Change in # Fruit per Tree ('Orri' mandarin trees [5]; 20 ppm @ 14 DAP): 17%
- # Fruit per Tree ('Orri' mandarin trees [5]; 20 ppm @ 21 DAP): 257
- % Change in # Fruit per Tree ('Orri' mandarin trees [5]; 20 ppm @ 21 DAP): 36%
- # Fruit per Tree ('Orri' mandarin trees [5]; 20 ppm @ 28 DAP): 196
- % Change in # Fruit per Tree ('Orri' mandarin trees [5]; 20 ppm @ 28 DAP): 4%
- # Fruit per Tree ('Orri' mandarin trees [5]; 40 ppm @ 14 DAP): 222
- % Change in # Fruit per Tree ('Orri' mandarin trees [5]; 40 ppm @ 14 DAP): 17%
- # Fruit per Tree ('Orri' mandarin trees [5]; 40 ppm @ 21 DAP): 234
